The source of these data is patent publication US8536160B2, “Azaheterocyclyl derivatives of androstanes and androstenes as medicaments for cardiovascular disorders” (priority 2006, dated 2013).

In one data set the test system is fresh rat hepatocytes. The experiment in a line: Metabolism in fresh rat hepatocytes. Conditions: test item nominal concentration 45 μM, 2590000-3084000 hepatocytes/ml.
For data set [1], the system named is hypertensive ouabain-sensitive rats (OS rats). The data set can be described thus: Systolic blood pressure fall in hypertensive ouabain-sensitive rats (OS rats). The class given is in vivo, rat. The settings on record: 10 μg/kg/day by mouth for four weeks. Here is the method: The ability of these compounds to lower blood pressure was tested by using an animal model with induced hypertension, in particular, rats made hypertensive by chronic infusion of ouabain, according to Ferrari P., et al. J. Pharm. Exp. Ther. 1998, 285, 83-94.
The procedure adopted to test the antihypertensive activity of the compounds on the above mentioned model was the following: systolic blood pressure (SBP) and heart rate (HR) were measured by an indirect tailcuff method. The blood pressure lowering effect was measured in hypertensive ouabain-sensitive rats. The compound, suspended in Methocel 0.5% (w/v), was administered daily at the dose of 10 μg/kg/day by mouth for four weeks. SBP and HR were measured weekly 6 hours after the treatment. The comparison are ouabain sensitive rats (OS rats) and non hypertensive rats (control), both treated only with Methocel 0.5% (w/v). As shown in the following Table 4, treatment with a compound of the present invention lowers the blood pressure of OS rats (170 mm Hg) to almost the level of control rats (150 mm Hg).

Data set [2] has as its target Dog Kidney Na+, K+-ATPase (Canis lupus familiaris, UniProt P50997). The experiment in a line: Inhibition of the enzymatic activity of purified Na+,K+-ATPase (hydrolysis of 32P-ATP). The class given is biochemical. The settings on record: read-out: Na+, K+-ATPase Inhibition IC50.

As for `C=C1C[C@@H]2[C@H](CC[C@]3(C)C(=O)CC[C@@H]23)[C@@]2(C)CC[C@@H](SC3CCNC3)CC12.O=C(O)/C=C/C(=O)O` (mixture of isomers) [I-db, 3α-[3-(RS)-Pyrrolidinylthio]-6-methyleneandrostane-17-one fumarate], in the data set with fresh rat hepatocytes, the “% of compound metabolized after 60 minutes” value is recorded as 25%. The molecule also returned an HR beats/min. in data set [1] of 387 beats/min. Also, the HR % beats/min entry in data set [1] (change versus OS rats on vehicle) is given as “+6.6%”. Moreover, the “SBP mmHg” value in data set [1] (measured 6 hours after treatment, tail-cuff) is 153.0 mmHg. Further, in data set [1] (versus OS rats on vehicle), the SBP - % amounted to 10.3% and the “SBP - mmHg (fall)” value is on record as 17.0 mmHg. In addition, in data set [2], the IC50 came to 20 µM.
